Experimental data from article PMC9124820, “In vitro evaluation of fenfluramine and norfenfluramine as victims of drug interactions” (Pharmacology Research & Perspectives, 2022).

Legend:
[1] = Substrate loss and nFFA formation over time in human liver microsomes; type: in vitro ADME
Description: Microsomes from a mixed‐gender pool of 200 non‐transplantable human livers (Sekisui XenoTech, LLC, Kansas City, KS) were characterized as described.[20], [21] Human recombinant CYP450s (rCYP450s) and control membranes from Escherichia coli transfected with empty expression plasmid or plasmid expressing nicotinamide adenine dinucleotide phosphate (hydrogen) (NADPH)‐CYP450 oxidoreductase without CYP450 enzymes were obtained from Cypex, Ltd. Metabolite identification and stability studies used human liver S9 fractions (containing both microsomal and cytosolic fractions of the cell) from pooled human liver (n = 50) and intestine (n = 10), pooled canine liver (n = 8) and intestine (n = 7), and pooled rat liver (n = 454) and intestine (n = 199). All rCYP450 enzymes except rCYP1A2 and rCYP2D6 were expressed with cytochrome b5.
For FFA and nFFA reaction phenotyping experiments, LC‐MS/MS experiments were performed using an API 4000 QTRAP or QTRAP 5500 mass spectrometer (SCIEX) with positive electrospray ionization. Chromatography was performed using an Atlantis dC18 analytical column (100 × 2.1 mm, 5 µm; Waters Corporation). Mobile phases were 0.2% v/v formic acid in water and 0.2% v/v formic acid in methanol. FFA and nFFA were eluted at a flow rate of 0.5 mL/min with a linear gradient of 40%−95% methanol from 0.20−2.1 min. The mass transitions monitored were 232.0>109.0 for FFA, 204.0>159.0 for nFFA, 348.0>330.0 for 1’‐hydroxymidazolam‐d4 internal standard (FFA reaction phenotyping), and 262.0>244.0 for hydroxybupropion‐d6 internal standard (nFFA reaction phenotyping). Analyst Instrument Control and Data Processing software (v. 1.6.1) was used for collecting and integrating data (SCIEX). Calibration curves ranging from 1.25 µM−0.01 µM were used to quantify nFFA. Relative quantitation was used to approximate the amount of FFA test material used.
The line of best‐fit for calibration standards was calculated by weighted (1/x) linear regression based on peak‐area ratios of analyte to the internal standard using Analyst Instrument Control and Data Processing software (version 1.6.1; SCIEX). Mean analyte peak‐area ratio at each time point was normalized to controls at t = 0 min (100%).

OAT1 = target: T1, OAT1 (Homo sapiens, UniProt Q4U2R8); experiment: Transporter substrate determination, uptake in HEK293-OAT1 cells; type: in vitro ADME; settings: for Maximum Ratio (uptake in transporter‐expressing cells to empty‐vector control cells): HEK293‐OAT1, 0.1, 1, 10 µM, threshold ≥2‐fold; for substrate of the transporter: OAT1
T1 construct: host or cells: HEK293
T1 sequence (Q4U2R8 1-563): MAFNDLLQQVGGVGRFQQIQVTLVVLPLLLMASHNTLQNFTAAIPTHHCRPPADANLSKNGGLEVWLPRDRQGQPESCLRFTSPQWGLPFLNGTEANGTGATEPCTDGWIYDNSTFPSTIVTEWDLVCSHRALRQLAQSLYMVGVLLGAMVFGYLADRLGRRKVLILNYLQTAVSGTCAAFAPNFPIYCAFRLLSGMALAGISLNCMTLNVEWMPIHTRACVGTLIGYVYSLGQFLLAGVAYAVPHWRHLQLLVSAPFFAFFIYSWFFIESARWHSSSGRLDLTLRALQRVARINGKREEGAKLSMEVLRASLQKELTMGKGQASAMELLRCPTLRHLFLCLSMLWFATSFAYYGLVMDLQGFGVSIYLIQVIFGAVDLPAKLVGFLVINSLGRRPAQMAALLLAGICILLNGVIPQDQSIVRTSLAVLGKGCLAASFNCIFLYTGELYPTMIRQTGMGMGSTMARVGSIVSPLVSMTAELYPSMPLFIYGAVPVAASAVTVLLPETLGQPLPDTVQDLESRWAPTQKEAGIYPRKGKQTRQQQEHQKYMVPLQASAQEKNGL
Experimental: LC‐MS/MS analyses to assess metabolic stability and identify the transporter substrate were performed using an API 4000 QTRAP mass spectrometer (SCIEX, Framingham, MA) with electrospray ionization in positive mode. Chromatography was performed using an Atlantis dC18 analytical column (100 × 2.1 mm, 5 µm; Waters Corporation, Milford, MA). Mobile phases were 0.2% v/v formic acid in water and 0.2% v/v formic acid in acetonitrile. For metabolic stability experiments, FFA and metabolites were eluted at a flow rate of 0.6 mL/min, with a linear gradient of 20%−80% acetonitrile from 0.30−2.0 min. For transporter substrate experiments, the gradient was slightly modified to achieve suitable chromatography. The mass transitions monitored were 232.0 > 159.0 for FFA and 348.0 > 330.0 for 1ʹ‐OH‐midazolam‐d4 internal standard.
FFA and nFFA were evaluated as substrates of the transporters breast cancer resistance protein (BCRP), organic anion transporter (OAT)1, OAT3, organic cation transporter (OCT)2, MATE1, MATE2‐K, and P‐glycoprotein multidrug transporter (P‐gp; also known as MDR1 and ABCB1), according to published methods.[25], [26], [27], [28], [29] Madin‐Darby canine kidney (MDCKII)‐BCRP cells (Netherlands Cancer Institute, Amsterdam, Netherlands) or human embryonic kidney (HEK)293 cells transfected with other transporters (Sekisui Medical Co., Ltd., Tokyo, Japan) were used. Transporter‐transfected and control cells were incubated with FFA or nFFA (0.1, 1, or 10 μM), and the amount of FFA and nFFA accumulated in the cells was measured by LC‐MS/MS as described above. The accumulation of positive control substrates in the presence and absence of an inhibitor served as a positive control for transporter function. […] BCRP substrate determination was made by bi‐directional permeability across MDCKII‐BCRP and control cells cultured on 24‐well transwell plates. Incubation medium containing probe substrate was added. Ten minutes later, transepithelial electrical resistance (TEER) was recorded and cells were preincubated at 37 ± 2°C for 30−60 min before FFA or nFFA or positive control substrate with the solvent control or positive control inhibitor was added to the donor (apical) chamber. […] Samples containing FFA, nFFA, or probe substrate were mixed with internal standard and analyzed by LC‐MS/MS. […] An aliquot was added to 96‐well plate containing scintillation fluid that was analyzed by a MicroBeta^2 scintillation counter (Perkin Elmer, Waltham, MA). Protein concentration was determined by a bicinchoninic acid (BCA) protein assay according to the manufacturer’s protocol (Thermo Fisher Scientific, Waltham, MA). Non‐radiolabeled compounds were resuspended in a 50:50 v/v methanol:water solution containing internal standard and were analyzed by LC‐MS/MS. […]

P‐gp = P‐gp (Homo sapiens, UniProt P08183); experiment: Transporter substrate determination, efflux ratio across Caco-2 cells (P-gp)
Sequence of P‐gp (P08183 whole entry): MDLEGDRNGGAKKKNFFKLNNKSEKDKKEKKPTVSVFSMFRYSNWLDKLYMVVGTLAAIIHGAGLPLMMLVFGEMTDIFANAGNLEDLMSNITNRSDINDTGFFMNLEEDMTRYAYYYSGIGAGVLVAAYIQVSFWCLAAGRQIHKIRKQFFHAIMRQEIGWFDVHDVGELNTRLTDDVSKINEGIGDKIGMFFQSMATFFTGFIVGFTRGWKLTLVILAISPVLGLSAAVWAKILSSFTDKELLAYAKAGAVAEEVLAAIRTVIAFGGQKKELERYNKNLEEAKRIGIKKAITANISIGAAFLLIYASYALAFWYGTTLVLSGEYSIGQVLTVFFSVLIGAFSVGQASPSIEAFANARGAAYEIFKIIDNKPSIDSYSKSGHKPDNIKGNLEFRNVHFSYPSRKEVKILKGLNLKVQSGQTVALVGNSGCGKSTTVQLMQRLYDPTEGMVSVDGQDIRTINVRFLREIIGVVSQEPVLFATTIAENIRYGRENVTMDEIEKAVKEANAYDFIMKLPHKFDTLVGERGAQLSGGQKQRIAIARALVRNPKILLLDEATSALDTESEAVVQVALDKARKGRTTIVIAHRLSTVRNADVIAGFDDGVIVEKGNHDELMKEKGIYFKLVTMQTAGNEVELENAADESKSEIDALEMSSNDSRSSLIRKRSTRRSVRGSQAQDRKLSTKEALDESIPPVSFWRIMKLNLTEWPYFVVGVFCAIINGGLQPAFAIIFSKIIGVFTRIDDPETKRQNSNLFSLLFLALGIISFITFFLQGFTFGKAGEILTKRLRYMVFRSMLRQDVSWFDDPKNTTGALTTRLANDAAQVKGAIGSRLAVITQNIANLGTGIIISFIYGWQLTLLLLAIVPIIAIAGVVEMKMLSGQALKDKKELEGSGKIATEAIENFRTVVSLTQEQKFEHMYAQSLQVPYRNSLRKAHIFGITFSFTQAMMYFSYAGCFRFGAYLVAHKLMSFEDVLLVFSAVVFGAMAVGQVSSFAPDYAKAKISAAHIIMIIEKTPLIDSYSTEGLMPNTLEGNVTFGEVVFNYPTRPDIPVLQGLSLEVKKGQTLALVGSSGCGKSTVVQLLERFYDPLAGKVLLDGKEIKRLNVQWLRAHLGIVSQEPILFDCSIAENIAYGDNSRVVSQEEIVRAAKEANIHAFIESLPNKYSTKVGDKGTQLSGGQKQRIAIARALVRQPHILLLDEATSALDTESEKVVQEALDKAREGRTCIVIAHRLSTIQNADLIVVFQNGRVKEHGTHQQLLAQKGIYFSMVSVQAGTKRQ

Row | Compound | FFA substrate loss ([1]; human liver microsomes 1 mg protein/mL, 1−100 µM FFA, all concentrations and times tested) [%] | substrate remaining in the absence of NADPH ([1]; human liver microsomes, FFA, absence of NADPH) | Maximum Ratio (uptake in transporter‐expressing cells to empty‐vector control cells) (OAT1) | substrate of the transporter (OAT1) | substrate of the transporter (P‐gp) | nFFA substrate loss in the absence of microsomal protein ([1]; control without microsomal protein) | nFFA substrate loss in the absence of the NADPH‐generating system ([1]; human liver microsomes, no NADPH-generating system) [%]
1 | CCNC(C)Cc1cccc(C(F)(F)F)c1 (racemic) [FFA, (RS)‐ethyl (α‐methyl‐3‐trifluoromethylphenethyl)amine] | ≤ 7.7 | ~ 100% | 1.22 | not substrates | not substrates |  | 
2 | CC(N)Cc1cccc(C(F)(F)F)c1.Cl (stereo not shown) [nFFA, 1‐(3‐(trifluoromethyl)phenyl)propan‐2‐amine hydrochloride] |  |  | 1.13 | not substrates | not substrates | no substrate loss detected | 1.2
